Each compound was assayed against human activated kallikrein enzyme (plasma kallikrein) (Homo sapiens (Human), UniProt P03952) (assay: Inhibition of human activated plasma kallikrein, fluorogenic peptide substrate assay, 500 pM enzyme format). Conditions: 500 pM activated kallikrein enzyme, 300 uM Pro-Phe-Arg-7-amido-4-methylcoumarin substrate, 30 min preincubation, 10 min at RT; read-out: Primary Dose Response Assay: Average EC50.
Type: biochemical
Method in brief: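 Buffer 20 mM Tris pH 7.5, EDTA, NaCl, PEG-400, Triton X-100; 300 uM Pro-Phe-Arg-AMC; enzyme–inhibitor preincubation 30 min RT. Format one: 500 pM kallikrein, 10 min RT reaction; format two: 5 pM kallikrein, 18 h RT reaction. Fluorescence read at 460 nm (380 nm excitation).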

human activated kallikrein enzyme (plasma kallikrein), sequence (P03952 391-638): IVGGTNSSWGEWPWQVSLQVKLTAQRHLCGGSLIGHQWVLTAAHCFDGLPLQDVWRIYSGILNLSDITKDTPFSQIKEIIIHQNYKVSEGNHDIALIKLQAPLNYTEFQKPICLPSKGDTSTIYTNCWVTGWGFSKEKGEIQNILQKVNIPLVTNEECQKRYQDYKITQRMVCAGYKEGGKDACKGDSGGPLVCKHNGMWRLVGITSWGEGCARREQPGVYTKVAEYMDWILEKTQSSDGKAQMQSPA
human activated kallikrein enzyme (plasma kallikrein), sequence (P03952 20-390 partner): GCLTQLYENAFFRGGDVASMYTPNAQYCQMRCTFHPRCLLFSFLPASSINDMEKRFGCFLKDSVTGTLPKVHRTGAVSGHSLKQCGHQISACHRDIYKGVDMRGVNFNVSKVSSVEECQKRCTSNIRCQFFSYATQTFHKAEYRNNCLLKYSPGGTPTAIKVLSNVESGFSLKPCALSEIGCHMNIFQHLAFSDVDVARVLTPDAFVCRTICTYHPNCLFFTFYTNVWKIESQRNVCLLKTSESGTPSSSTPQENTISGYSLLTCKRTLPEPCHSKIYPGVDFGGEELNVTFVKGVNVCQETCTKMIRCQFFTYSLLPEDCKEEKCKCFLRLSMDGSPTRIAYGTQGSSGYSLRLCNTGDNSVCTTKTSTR

EC50 [nM] | Compound
10 to 100 | O=C(NCc1ncn2cc(F)c(Cl)cc12)c1cn(Cc2cn3cc(C4CC4)ccc3n2)nn1 [Example I-277, N-((7-chloro-6-fluoroimidazo[1,5-a]pyridin-1-yl)methyl)-1-((6-cyclopropylimidazo[1,2-a]pyridin-2-yl)methyl)-1H-1,2,3-triazole-4-carboxamide]
10 to 100 | O=C(NCc1ncn2ccc(Cl)c(F)c12)c1cn(Cc2cc3ccc(Cl)cc3s2)nn1 [Example I-234, N-((7-chloro-8-fluoroimidazo[1,5-a]pyridin-1-yl)methyl)-1-((6-chlorobenzo[b]thiophen-2-yl)methyl)-1H-1,2,3-triazole-4-carboxamide]
< 1 | O=C(NCc1ncn2ccc(Cl)c(F)c12)c1cn(Cc2cn3cc(C4CC4)cc(CO)c3n2)nn1 [Example I-181, N-((7-chloro-8-fluoroimidazo[1,5-a]pyridin-1-yl)methyl)-1-((6-cyclopropyl-8-(hydroxymethyl)imidazo[1,2-a]pyridin-2-yl)methyl)-1H-1,2,3-triazole-4-carboxamide]
< 1 | O=C(NCc1ncn2ccc(Cl)c(F)c12)c1cnn(Cc2cn3cc(C4CC4)cc(Cc4nnco4)c3n2)c1 [Example I-214, 1-((8-((1,3,4-oxadiazol-2-yl)methyl)-6-cyclopropylimidazo[1,2-a]pyridin-2-yl)methyl)-N-((7-chloro-8-fluoroimidazo[1,5-a]pyridin-1-yl)methyl)-1H-pyrazole-4-carboxamide]
10 to 100 | O=C(NCc1ncn2ccc(Cl)c(F)c12)c1cn(Cc2cc3cc(C4CC4)ccc3[nH]2)nn1 [Example I-232, N-((7-chloro-8-fluoroimidazo[1,5-a]pyridin-1-yl)methyl)-1-((5-cyclopropyl-1H-indol-2-yl)methyl)-1H-1,2,3-triazole-4-carboxamide]
100 to 2000 | O=C(O)CC(c1cn2cc(C3CC3)ccc2n1)n1cc(C(=O)NCc2ncn3ccc(Cl)c(F)c23)nn1 (stereo not drawn) [Example I-227b, 3-(4-(((7-chloro-8-fluoroimidazo[1,5-a]pyridin-1-yl)methyl)carbamoyl)-1H-1,2,3-triazol-1-yl)-3-(6-cyclopropylimidazo[1,2-a]pyridin-2-yl)propanoic acid]
10 to 100 | CC(NC(=O)c1cn(Cc2cn3cc(C4CC4)cc(C(O)C4COC4)c3n2)nn1)c1ncn2ccc(Cl)c(F)c12 (stereo not drawn) [Example I-280, N-(1-(7-chloro-8-fluoroimidazo[1,5-a]pyridin-1-yl)ethyl)-1-((6-cyclopropyl-8-(hydroxy(oxetan-3-yl)methyl)imidazo[1,2-a]pyridin-2-yl)methyl)-1H-1,2,3-triazole-4-carboxamide]
1 to 10 | O=C(NCc1ncn2ccc(Cl)c(F)c12)c1cn(Cc2cc3ncc(C4CC4)cn3n2)nn1 [Example I-209, N-((7-chloro-8-fluoroimidazo[1,5-a]pyridin-1-yl)methyl)-1-((6-cyclopropylpyrazolo[1,5-a]pyrimidin-2-yl)methyl)-1H-1,2,3-triazole-4-carboxamide]
< 1 | CCOC(=O)C(C)(C)Cc1cc(C2CC2)cn2cc(Cn3cc(C(=O)NCc4ncn5ccc(Cl)c(F)c45)nn3)nc12 [Example I-205, ethyl 3-(2-((4-(((7-chloro-8-fluoroimidazo[1,5-a]pyridin-1-yl)methyl)carbamoyl)-1H-1,2,3-triazol-1-yl)methyl)-6-cyclopropylimidazo[1,2-a]pyridin-8-yl)-2,2-dimethylpropanoate]
< 1 | N#CCCc1cc(C2CC2)cn2cc(Cn3cc(C(=O)NCc4ncn5ccc(Cl)cc45)nn3)nc12 [Example I-184, N-((7-chloroimidazo[1,5-a]pyridin-1-yl)methyl)-1-((8-(2-cyanoethyl)-6-cyclopropylimidazo[1,2-a]pyridin-2-yl)methyl)-1H-1,2,3-triazole-4-carboxamide]
1 to 10 | COC(=O)c1cc(C(=O)NCc2ncn3ccc(Cl)c(F)c23)cn1Cc1cn2cc(C3CC3)ccc2n1 [Example I-270a, methyl 4-(((7-chloro-8-fluoroimidazo[1,5-a]pyridin-1-yl)methyl)carbamoyl)-1-((6-cyclopropylimidazo[1,2-a]pyridin-2-yl)methyl)-1H-pyrrole-2-carboxylate]
< 1 | CCOC(=O)C(C)(C)Oc1cc(C2CC2)cn2cc(Cn3cc(C(=O)NCc4ncn5ccc(Cl)c(F)c45)nn3)nc12 [Example I-223, ethyl 2-((2-((4-(((7-chloro-8-fluoroimidazo[1,5-a]pyridin-1-yl)methyl)carbamoyl)-1H-1,2,3-triazol-1-yl)methyl)-6-cyclopropylimidazo[1,2-a]pyridin-8-yl)oxy)-2-methylpropanoate]
10 to 100 | CCOc1c(Cl)ccn2cnc(CNC(=O)c3cn(Cc4cn5cc(C6CC6)cc(CC6(C(=O)O)CCCC6)c5n4)nn3)c12 [Example I-221c, 1-((2-((4-(((7-chloro-8-ethoxyimidazo[1,5-a]pyridin-1-yl)methyl)carbamoyl)-1H-1,2,3-triazol-1-yl)methyl)-6-cyclopropylimidazo[1,2-a]pyridin-8-yl)methyl)cyclopentane-1-carboxylic acid]
< 1 | CC(C)(Oc1cc(C2CC2)cn2cc(Cn3cc(C(=O)NCc4ncn5ccc(Cl)c(F)c45)nn3)nc12)C(=O)O [Example I-212, 2-((2-((4-(((7-chloro-8-fluoroimidazo[1,5-a]pyridin-1-yl)methyl)carbamoyl)-1H-1,2,3-triazol-1-yl)methyl)-6-cyclopropylimidazo[1,2-a]pyridin-8-yl)oxy)-2-methylpropanoic acid]

The next lines start with the compound.

Compound | EC50 [nM]
O=C(NCc1ncn2ccc(Cl)cc12)c1cn(Cc2cn3cc(C4CC4)cc(C4(O)COC4)c3n2)nn1 [Example I-153, N-((7-chloroimidazo[1,5-a]pyridin-1-yl)methyl)-1-((6-cyclopropyl-8-(3-hydroxyoxetan-3-yl)imidazo[1,2-a]pyridin-2-yl)methyl)-1H-1,2,3-triazole-4-carboxamide] | < 1
O=C(NCc1ncn2ccc(Cl)cc12)c1cnn(Cc2cn3cc(C4CC4)c(Cl)cc3n2)c1 [Example I-24, 1-((7-chloro-6-cyclopropylimidazo[1,2-a]pyridin-2-yl)methyl)-N-((7-chloroimidazo[1,5-a]pyridin-1-yl)methyl)-1H-pyrazole-4-carboxamide] | 1 to 10
CCOC(=O)c1cc(C2CC2)cn2cc(Cn3cc(C(=O)NCc4ncn5ccc(Cl)c(F)c45)nn3)nc12 [Example I-166a, ethyl 2-((4-(((7-chloro-8-fluoroimidazo[1,5-a]pyridin-1-yl)methyl)carbamoyl)-1H-1,2,3-triazol-1-yl)methyl)-6-cyclopropylimidazo[1,2-a]pyridine-8-carboxylate] | < 1
O=C(NCc1ncn2ccc(Br)c(F)c12)c1cn(Cc2cn3nc(C4CC4)ccc3n2)nn1 [Example I-139, N-((7-bromo-8-fluoroimidazo[1,5-a]pyridin-1-yl)methyl)-1-((6-cyclopropylimidazo[1,2-b]pyridazin-2-yl)methyl)-1H-1,2,3-triazole-4-carboxamide] | < 1
O=C(NCc1ncn2ccc(Cl)cc12)c1nnn(Cc2cn3cc(C4CC4)ccc3n2)n1 [Example I-110, N-((7-chloroimidazo[1,5-a]pyridin-1-yl)methyl)-2-((6-cyclopropylimidazo[1,2-a]pyridin-2-yl)methyl)-2H-tetrazole-5-carboxamide] | < 1
N#Cc1cc(C2CC2)cn2cc(Cc3nnc(C(=O)NCc4ncn5ccc(Cl)cc45)o3)nc12 [Example I-128, N-((7-chloroimidazo[1,5-a]pyridin-1-yl)methyl)-5-((8-cyano-6-cyclopropylimidazo[1,2-a]pyridin-2-yl)methyl)-1,3,4-oxadiazole-2-carboxamide] | < 1
Cc1ccc2nc(Cn3cc(C(=O)NCc4ncn5ccc(Cl)cc45)cn3)cn2c1 [Example I-64, N-((7-chloroimidazo[1,5-a]pyridin-1-yl)methyl)-1-((6-methylimidazo[1,2-a]pyridin-2-yl)methyl)-1H-pyrazole-4-carboxamide] | 1 to 10
O=C(NCc1ncn2ccc(Cl)c(F)c12)c1cn(Cc2cn3cc(C4CC4)cc(C(=O)O)c3n2)nn1 [Example I-166b, 2-((4-(((7-chloro-8-fluoroimidazo[1,5-a]pyridin-1-yl)methyl)carbamoyl)-1H-1,2,3-triazol-1-yl)methyl)-6-cyclopropylimidazo[1,2-a]pyridine-8-carboxylic acid] | < 1
CCc1c(Cl)ccc2nc(Cn3cc(C(=O)NCc4ncn5ccc(Cl)cc45)cn3)cn12 [Example I-34, 1-((6-chloro-5-ethylimidazo[1,2-a]pyridin-2-yl)methyl)-N-((7-chloroimidazo[1,5-a]pyridin-1-yl)methyl)-1H-pyrazole-4-carboxamide] | 10 to 100
Cc1ccc2nc(Cn3cc(C(=O)NCc4ncn5ccc(Cl)cc45)cn3)cn2c1C [Example I-130] | 10 to 100
O=C(NCc1ncn2ccc(Br)c(F)c12)c1nnn(Cc2cn3cc(C4CC4)ccc3n2)n1 [Example I-135, N-((7-bromo-8-fluoroimidazo[1,5-a]pyridin-1-yl)methyl)-2-((6-cyclopropylimidazo[1,2-a]pyridin-2-yl)methyl)-2H-tetrazole-5-carboxamide] | < 1
CC(C)(O)Cc1cc(C2CC2)cn2cc(Cn3cc(C(=O)NCc4ncn5ccc(Cl)cc45)cn3)nc12 [Example I-109, N-((7-chloroimidazo[1,5-a]pyridin-1-yl)methyl)-1-((6-cyclopropyl-8-(2-hydroxy-2-methylpropyl)imidazo[1,2-a]pyridin-2-yl)methyl)-1H-pyrazole-4-carboxamide] | < 1
O=C(NCc1ncn2ccc(Cl)cc12)c1cnn(Cc2cn3cc(C4CC4)cc(C4COC4)c3n2)c1 [Example I-132, N-((7-chloroimidazo[1,5-a]pyridin-1-yl)methyl)-1-((6-cyclopropyl-8-(oxetan-3-yl)imidazo[1,2-a]pyridin-2-yl)methyl)-1H-pyrazole-4-carboxamide] | < 1

Source: US10730874B2 (Shire Human Genetic Therapies, Inc., priority 2018, dated 2020)
